Measured values taken from patent US9334289B2, “Cephem compound having catechol or pseudo-catechol structure” (SHIONOGI & CO., LTD., priority 2011, dated 2016).
≈ marks a conversion by molar mass, not a printed value.

Key:
Assay in all cases: MIC, CLSI broth microdilution, Test Example 2
Type in all cases: cell-based
A. baumannii SR01331 = conditions: PER-1, OXA-23.51 ESBL- & OXA-type carbapenemase producing strain, cation-adjusted Iso-Sensitest broth containing human Apo-transferrin, 5×10^5 cfu/mL; for MIC: Acinetobacter baumannii, SR01331, read-out: Minimum Inhibitory Concentration (MIC) A. baumannii SR01331
Method: (§1) Measurement of Minimum Inhibitory Concentration (MIC: μg/mL) was conducted according to CLSI (Clinical and Laboratory Standards Institute) method, and the amount of bacteria for inoculation was 5×10^5 cfu/mL, and cation-adjusted Iso-Sensitest broth containing human Apo-transferrin was used as a test medium, and the experiment was conducted using broth microdilution method.

E. coli ATCCBAA-196 = conditions: TEM-10 ESBL producing strain, cation-adjusted Iso-Sensitest broth containing human Apo-transferrin, 5×10^5 cfu/mL; for MIC: Escherichia coli, ATCCBAA196, read-out: Minimum Inhibitory Concentration (MIC) E. coli ATCC BAA-196
Method: as §1

E. cloacae NCTC13464 = conditions: CTX-M group 9 ESBL producing strain, cation-adjusted Iso-Sensitest broth containing human Apo-transferrin, 5×10^5 cfu/mL; for MIC: Enterobacter cloacae, NCTC13464, read-out: Minimum Inhibitory Concentration (MIC) E. cloacae NCTC 13464
Method: as §1

E. coli SR01337 = conditions: TEM-1 ESBL producing strain, cation-adjusted Iso-Sensitest broth containing human Apo-transferrin, 5×10^5 cfu/mL; for MIC: Escherichia coli, SR01337, read-out: Minimum Inhibitory Concentration (MIC) E. coli SR01337
Method: as §1

P. aeruginosa SR01335 = conditions: VIM-1 like MBL producing strain (carbapenem resistance strain), cation-adjusted Iso-Sensitest broth containing human Apo-transferrin, 5×10^5 cfu/mL; for MIC: Pseudomonas aeruginosa, SR01335, read-out: Minimum Inhibitory Concentration (MIC) P. aeruginosa SR01335
Method: as §1

P. aeruginosa SR01332 = conditions: VIM-11 MBL producing strain (carbapenem resistance strain), cation-adjusted Iso-Sensitest broth containing human Apo-transferrin, 5×10^5 cfu/mL; for MIC: Pseudomonas aeruginosa, SR01332, read-out: Minimum Inhibitory Concentration (MIC) P. aeruginosa SR01332
Method: as §1

E. coli ATCCBAA-200 = conditions: SHV-4 ESBL producing strain, cation-adjusted Iso-Sensitest broth containing human Apo-transferrin, 5×10^5 cfu/mL; for MIC: Escherichia coli, ATCCBAA200, read-out: Minimum Inhibitory Concentration (MIC) E. coli ATCC BAA-200
Method: as §1

K. pneumoniae ATCC700603 = conditions: SHV18 ESBL producing strain, cation-adjusted Iso-Sensitest broth containing human Apo-transferrin, 5×10^5 cfu/mL; for MIC: Klebsiella pneumoniae, ATCC700603, read-out: Minimum Inhibitory Concentration (MIC) K. pneumoniae ATCC 700603
Method: as §1

MIC (A. baumannii SR01331)	MIC (E. coli ATCCBAA-196)	MIC (E. cloacae NCTC13464)	MIC (E. coli SR01337)	MIC (P. aeruginosa SR01335)	MIC (P. aeruginosa SR01332)	MIC (E. coli ATCCBAA-200)	MIC (K. pneumoniae ATCC700603)	SMILES	Minimum Inhibitory Concentration (MIC) A. baumannii SR01331 (A. baumannii SR01331)	Minimum Inhibitory Concentration (MIC) E. coli ATCC BAA-196 (E. coli ATCCBAA-196)	Minimum Inhibitory Concentration (MIC) E. cloacae NCTC 13464 (E. cloacae NCTC13464)	Minimum Inhibitory Concentration (MIC) E. coli SR01337 (E. coli SR01337)	Minimum Inhibitory Concentration (MIC) P. aeruginosa SR01335 (P. aeruginosa SR01335)	Minimum Inhibitory Concentration (MIC) P. aeruginosa SR01332 (P. aeruginosa SR01332)	Minimum Inhibitory Concentration (MIC) E. coli ATCC BAA-200 (E. coli ATCCBAA-200)	Minimum Inhibitory Concentration (MIC) K. pneumoniae ATCC 700603 (K. pneumoniae ATCC700603)
0.25 µg/mL	≤ 0.031 µg/mL	0.063 µg/mL	≤ 0.031 µg/mL	2 µg/mL	2 µg/mL	0.063 µg/mL	≤ 0.031 µg/mL	Nc1nc(/C(=N/O[C@@H](CC(=O)[O-])C(=O)[O-])C(=O)N[C@@H]2C(=O)N3C(c4nnn[n-]4)=C(C[N+]4(CCNC(=O)c5ccc(O)c(O)c5Cl)CCCCC4)CS[C@H]23)cs1.[Na+].[Na+] [Compound I-67]	–	–	–	–	–	–	–	–
0.5 µg/mL	0.125 µg/mL	0.063 µg/mL	≤ 0.031 µg/mL	2 µg/mL	2 µg/mL	0.125 µg/mL	0.125 µg/mL	CC(C)(O/N=C(\C(=O)N[C@@H]1C(=O)N2C(c3nnn[n-]3)=C(C[N+]3(CCNC(=O)c4ccc(O)c(O)c4Cl)CCCCC3)CS[C@H]12)c1csc(N)n1)C(=O)[O-].[Na+] [Compound I-69]	–	–	–	–	–	–	–	–
0.5 µg/mL	0.125 µg/mL	0.125 µg/mL	≤ 0.031 µg/mL	1 µg/mL	4 µg/mL	0.25 µg/mL	0.125 µg/mL	CC(C)(O/N=C(\C(=O)N[C@@H]1C(=O)N2C(c3nnn[n-]3)=C(C[N+]3(CCNC(=O)c4ccc(O)c(O)c4Cl)CCCC3)CS[C@H]12)c1csc(N)n1)C(=O)[O-].[Na+] [Compound I-82]	–	–	–	–	–	–	–	–
–	–	–	–	–	–	–	–	Nc1nc(C(=NOC(CC(=O)[O-])C(=O)[O-])C(=O)NC2C(=O)N3C(c4nnn[n-]4)=C(C[N+]45CCC(CNC(=O)c6ccc(O)c(O)c6Cl)(CC4)CC5)CSC23)c(Cl)s1.[Na+].[Na+] (stereo not shown) [Compound I-94]	0.5 µg/mL	0.063 µg/mL	0.5 µg/mL	0.063 µg/mL	1 µg/mL	2 µg/mL	0.5 µg/mL	0.5 µg/mL
0.25 µg/mL (≈ 0.293 µM)	0.125 µg/mL (≈ 0.147 µM)	0.5 µg/mL (≈ 0.586 µM)	0.25 µg/mL (≈ 0.293 µM)	1 µg/mL (≈ 1.17 µM)	4 µg/mL (≈ 4.69 µM)	0.5 µg/mL (≈ 0.586 µM)	0.5 µg/mL (≈ 0.586 µM)	Nc1nc(/C(=N/O[C@@H](CC(=O)O)C(=O)[O-])C(=O)N[C@@H]2C(=O)N3C(c4nnn[nH]4)=C(C[N@+]45CCC[C@H]4CN(C(=O)c4ccc(O)c(O)c4Cl)CC5)CS[C@H]23)c(Cl)s1 [Compound I-97]	–	–	–	–	–	–	–	–
1 µg/mL (≈ 1.27 µM)	0.25 µg/mL (≈ 0.317 µM)	0.125 µg/mL (≈ 0.159 µM)	≤ 0.031 µg/mL	2 µg/mL (≈ 2.54 µM)	8 µg/mL (≈ 10.1 µM)	0.5 µg/mL (≈ 0.634 µM)	0.25 µg/mL (≈ 0.317 µM)	CC(C)(O/N=C(\C(=O)N[C@@H]1C(=O)N2C(c3nnn[nH]3)=C(C[N@+]34CCC[C@H]3CN(C(=O)c3ccc(O)c(O)c3Cl)CC4)CS[C@H]12)c1csc(N)n1)C(=O)[O-] [Compound I-98]	–	–	–	–	–	–	–	–
0.5 µg/mL (≈ 0.633 µM)	≤ 0.031 µg/mL	0.125 µg/mL (≈ 0.158 µM)	≤ 0.031 µg/mL	2 µg/mL (≈ 2.53 µM)	4 µg/mL (≈ 5.06 µM)	0.063 µg/mL (≈ 0.0798 µM)	0.063 µg/mL (≈ 0.0798 µM)	Nc1nc(/C(=N/O[C@@H](CC(=O)O)C(=O)[O-])C(=O)N[C@@H]2C(=O)N3C(c4nnn[nH]4)=C(C[N+]4(CCNC(=O)c5cc(O)c(O)c(F)c5)CCCC4)CS[C@H]23)cs1 [Compound I-99]	–	–	–	–	–	–	–	–

SMILES	MIC (A. baumannii SR01331)	MIC (E. coli ATCCBAA-196)	MIC (E. cloacae NCTC13464)	MIC (E. coli SR01337)	MIC (P. aeruginosa SR01335)	MIC (P. aeruginosa SR01332)	MIC (E. coli ATCCBAA-200)	MIC (K. pneumoniae ATCC700603)	Minimum Inhibitory Concentration (MIC) A. baumannii SR01331 (A. baumannii SR01331)	Minimum Inhibitory Concentration (MIC) E. coli ATCC BAA-196 (E. coli ATCCBAA-196)	Minimum Inhibitory Concentration (MIC) E. cloacae NCTC 13464 (E. cloacae NCTC13464)	Minimum Inhibitory Concentration (MIC) E. coli SR01337 (E. coli SR01337)	Minimum Inhibitory Concentration (MIC) P. aeruginosa SR01335 (P. aeruginosa SR01335)	Minimum Inhibitory Concentration (MIC) P. aeruginosa SR01332 (P. aeruginosa SR01332)	Minimum Inhibitory Concentration (MIC) E. coli ATCC BAA-200 (E. coli ATCCBAA-200)	Minimum Inhibitory Concentration (MIC) K. pneumoniae ATCC 700603 (K. pneumoniae ATCC700603)
C[N+]1(CC2=C(c3nnn[nH]3)N3C(=O)[C@@H](NC(=O)/C(=N\O[C@@H](CC(=O)O)C(=O)O)c4nc(N)sc4Cl)[C@H]3SC2)[C@@H]2CC[C@H]1C[C@@H](NC(=O)c1ccc(O)c(O)c1Cl)C2.[Na+].[Na+] (stereo partly shown) [Compound I-96]	0.25 µg/mL	0.25 µg/mL	0.5 µg/mL	0.125 µg/mL	2 µg/mL	4 µg/mL	1 µg/mL	1 µg/mL	–	–	–	–	–	–	–	–
